Measurements taken from US12648928B2, “Intervention strategy for prevention or treatment of diabetes mellitus, autoimmune disease, inflammatory disease or cardiovascular disease” (ACADEMISCH MEDISCH CENTRUM, priority 2020, dated 2026).

Legend:
NF-κB = NF-κB reporter macrophage luciferase assay (RAW264.7); assay type: cell-based, murine
Procedure: NF-κB signaling activation was assessed by luciferase activity assay. RAW264.7 cells stably transfected with the 3×-κB-luc plasmid (DNA construct containing three NF-κB sites from the Ig κ light chain promoter coupled to the gene encoding firefly luciferase) were grown in DMEM medium supplemented with 10% heat-inactivated fetal bovine serum, penicillin (100 U/ml), streptomycin (100 μg/ml), L-glutamine (2 mM). Cells were seeded in F-bottom 96-well […] metabolites at different concentrations (6-BT 0,1-100 μM, LysoPC(20:0) 1-10 μM, 16:0-18:2 PE 1-50 μM, MA-GPC 1-100 μM). Afterwards, cells were lysed with 25 μl/well 1×passive lysis buffer and firefly luciferase activity was measured by LUCIFERASE® Assay System (Promega, E1500) on a GLOMAX @-Multi Detection System (Promega).

murine DC = test: In vitro stimulation of murine dendritic cells, cytokine secretion; assay type: cell-based; conditions: GM-CSF differentiated DC
Procedure: Bone marrow-derived macrophages (BMDM) and DC (BMDC) were obtained by differentiating freshly isolated BM cells from femur and tibia bones (as above described) of C57/B16 mice (N=3 per experiment). For BMDM, BM cells were seeded at 3×10^6 cells per 10 cm dish and cultured for 7 days in 12 ml RPMI1640 medium with 20% fetal bovine serum, 30% L-929 cell conditioned media, as source of murine macrophage colony-stimulating factor (M-CSF). For BMDC, BM cells were seeded at 0.5×10^6/ml cells in 25 ml in 10 cm dishes and cultured for 7 days in presence of GM-CSF in 5% FBS-RPMI1640 medium. After differentiation, BMDM/DCs were harvested, counted and seeded at a density of 1×10^5 cells per well in a F-bottom 96-well plate and left to adhere for 20 hours before experiments were performed. […]
Specific ELISAs (R&D Systems) were utilized to measure the concentration of TNFα, IFNβ, and IFNγ in cell supernatant of murine monocytes, macrophages ad T cells, respectively, according to the manufacturer's instructions. The concentration of insulin after 24-hour treatment with metabolites or after GSIS were determined using Rat insulin ELISA (Mercodia) according to the manufacturer's instructions. GSIS was calculated by subtracting the concentration of insulin at 1 mM glucose to the insulin rate at 22 mM glucose. […]

N[C@@H](Cc1c[nH]c2cc(Br)ccc12)C(=O)O [6-BT, 6-bromotryptophan]
NFκB pathway activation in macrophages (NF-κB; RAW264.7 3x-κB-luc, LPS 10/100 ng/ml 2 hours, different doses (FIG. 7)): can inhibit NFκB pathway activation | transcriptional activity of the NFkB complex (NF-κB; RAW264.7 NFkB luciferase reporter, overnight exposure 10-200 μM, 2 hours LPS (10 μg/ml) (FIG. 19)): inhibits the transcriptional activity of the NFkB complex in a dose-dependent manner | secretion of IFNbeta by DC (murine DC; TLR3 activation with 10 μg/ml poly(I.C) (FIG. 15)): inhibits the secretion | secretion of TNFα by DC (murine DC; TLR4 activation with 100 μg/ml LPS (FIG. 15)): inhibits the secretion
